Assay results: US20070219214A1, “Dual NK2/NK3-antagonists, pharmaceutical compositions comprising them, and processes for their preparation” (Solvay pharmaceuticals GmbH, priority 2006, published 2007)
Like-named read-outs stand apart in the source and are kept apart here.

What was measured:
[1] = target: T1, human NK3 receptor (Homo sapiens, UniProt P29371); test: Functional cellular test, Ca2+ measurements using aequorin for NK3 activity; assay type: cell-based; parameters: expressed in transfected cells; host or cells: cell line co-expressing mitochondrially targeted apoaequorin (CHO according to b76/b77); conditions: for pA2 data for NK3: cell line with human NK3 receptor and apoaequorin, agonist senktide 5x10-8 M; for Kb: read-out: pA2 data for NK3 (converted)
T1 sequence (P29371 1-465): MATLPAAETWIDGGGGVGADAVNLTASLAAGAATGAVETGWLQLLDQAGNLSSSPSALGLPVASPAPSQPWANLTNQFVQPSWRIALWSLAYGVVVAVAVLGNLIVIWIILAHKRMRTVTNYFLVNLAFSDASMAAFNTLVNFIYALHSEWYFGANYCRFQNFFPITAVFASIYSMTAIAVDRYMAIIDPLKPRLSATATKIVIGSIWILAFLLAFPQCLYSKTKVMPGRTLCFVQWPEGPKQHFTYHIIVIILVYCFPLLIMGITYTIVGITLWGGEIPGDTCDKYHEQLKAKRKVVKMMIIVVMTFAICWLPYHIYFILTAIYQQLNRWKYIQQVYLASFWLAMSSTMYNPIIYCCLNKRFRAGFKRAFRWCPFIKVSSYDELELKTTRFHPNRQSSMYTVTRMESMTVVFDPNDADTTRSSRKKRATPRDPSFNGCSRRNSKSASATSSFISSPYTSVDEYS

[2] = target: T2, human NK2-receptor (Homo sapiens, UniProt P21452); test: Binding potency of the test substances to NK2-receptors in vitro ([3H]-SR 48968 displacement); parameters: expressed in transfected cells; host or cells: CHO cells (membrane preparation); conditions: human NK2-receptor in CHO cell membranes, [3H]-SR 48968 (saredutant), average of at least three measurements; for Ki: read-out: pKi, binding potency to NK2-receptors (converted)
T2 sequence (P21452 1-398): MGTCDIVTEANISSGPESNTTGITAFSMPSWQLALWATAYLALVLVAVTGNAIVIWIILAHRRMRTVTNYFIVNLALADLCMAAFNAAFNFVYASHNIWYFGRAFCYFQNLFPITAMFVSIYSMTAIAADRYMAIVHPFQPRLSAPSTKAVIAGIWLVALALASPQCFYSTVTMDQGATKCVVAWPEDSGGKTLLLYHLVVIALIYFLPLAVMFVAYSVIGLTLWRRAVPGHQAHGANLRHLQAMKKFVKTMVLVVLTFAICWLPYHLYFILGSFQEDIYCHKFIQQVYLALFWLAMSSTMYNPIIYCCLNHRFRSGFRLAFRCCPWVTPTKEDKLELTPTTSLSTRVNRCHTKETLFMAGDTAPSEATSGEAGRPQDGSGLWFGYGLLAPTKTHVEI
Summary of the method: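 Membranes from CHO cells stably expressing the receptor were incubated with [3H]-saredutant plus test compound, then filtered and counted by liquid scintillation. Nonspecific binding defined with 0.1 μmol/l unlabeled saredutant. IC50 from displacement converted to Ki via Cheng-Prusoff and reported as pKi, averaged over measurements.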

[3] = target: T3, NK2-receptor (Cavia porcellus, UniProt Q64077); test: NK2-receptor-antagonistic effectiveness in vivo, NKA-induced late hypotension, bronchoconstriction and colonic pressure in anaesthetised guinea pigs; conditions: guinea pig; for ED50 iv after 1 min (cumulative), NK2 (bronchoconstriction) / ED50 iv after 1 min (cumulative), NK2 (colonic motility) / ED50 iv after 1 min (cumulative), NK2 (late hypotension) / ED50 AUC1-180 min oral, NK2 (bronchoconstriction) / ED50 AUC1-180 min oral, NK2 (colonic motility) / ED50 AUC1-180 min oral, NK2 (late hypotension): NKA 200 pmol/animal i.v.; for ED50 iv after 1 min (cumulative), NK2 (bronchoconstriction) / ED50 iv after 1 min (cumulative), NK2 (colonic motility) / ED50 iv after 1 min (cumulative), NK2 (late hypotension): intravenous administration; for oral activity on the NK2, in words / ED50 AUC1-180 min oral, NK2 (bronchoconstriction) / ED50 AUC1-180 min oral, NK2 (colonic motility) / ED50 AUC1-180 min oral, NK2 (late hypotension): oral administration
T3 construct: from tissue; host or cells: whole animal (Pirbright-White guinea pigs), in vivo
T3 sequence (Q64077 1-402): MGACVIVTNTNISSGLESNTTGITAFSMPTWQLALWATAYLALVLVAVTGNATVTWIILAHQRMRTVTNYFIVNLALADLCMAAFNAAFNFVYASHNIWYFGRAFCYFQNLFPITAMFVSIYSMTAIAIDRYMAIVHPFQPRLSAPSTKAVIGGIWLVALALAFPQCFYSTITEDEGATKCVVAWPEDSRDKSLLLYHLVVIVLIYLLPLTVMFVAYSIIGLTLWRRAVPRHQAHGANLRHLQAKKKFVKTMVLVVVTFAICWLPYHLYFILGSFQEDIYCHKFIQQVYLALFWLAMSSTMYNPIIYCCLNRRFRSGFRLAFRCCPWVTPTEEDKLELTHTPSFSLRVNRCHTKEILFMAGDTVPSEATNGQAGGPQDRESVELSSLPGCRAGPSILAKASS
Excerpt: 10. Determination of the NK1- and NK2-Receptor-Antagonistic Effectiveness of the Test Substances In Vivo
The NK1- and NK2-antagonistic activities of the test substances were investigated in anaesthetised guinea pigs in each case after intravenous (=i.v.) and oral (=p.o.) administration in vivo. With the present test model it is possible to detect both NK2-antagonistic effects in three different organ systems (respiratory tracts, colon and circulation) and NK1-antagonistic effects (rapid drop in blood pressure) in an animal simultaneously.
Pirbright-White guinea pigs of a body weight of 500-700 g were anaesthetised with ketamine/xylazine (67/13 mg/kg subcutaneously, initial dose, further doses administered as required). The animals were provided with an intravenous catheter in order to administer the substance and an intra-arterial catheter to measure the blood pressure. The animals were artificially ventilated via a tracheal cannula and the respiratory pressure was recorded by means of a pressure transducer. A balloon was introduced into the distal colon of the animals for manometric recording of colon motility by means of a pressure transducer. Blood pressure, heart rate, respiratory pressure and colonic pressure were measured continuously for each animal and plotted on a recorder and by means of a digital data-processing system. […] The second phase of delayed hypotension (=phase of maximum hypotension after 2-5 min.) on the other hand is mediated via NK2-receptors, since they can be blocked by specific NK2-receptor antagonists.
These ED50 values obtained from cumulative dose effect curves are plotted in Table 13.

[4] = iv, read-out: ED50 iv after 1 min (cumulative), NK2 (bronchoconstriction)
[5] = iv, read-out: ED50 iv after 1 min (cumulative), NK2 (colonic motility)
[6] = iv, read-out: ED50 iv after 1 min (cumulative), NK2 (late hypotension)

Structure (SMILES) | pA2 data for NK3 [1] | pKi, binding potency to NK2-receptors [2] | ED50 iv after 1 min (cumulative), NK2 (bronchoconstriction) [3] | ED50 iv after 1 min (cumulative), NK2 (colonic motility) [3] | ED50 iv after 1 min (cumulative), NK2 (late hypotension) [3] | Kb [1] | Ki [2] | ED50 [3, 4] | ED50 [3, 5] | ED50 [3, 6] | oral activity on the NK2, in words [3] | also measured
CN(C)C(=O)C1(N2CCCCC2)CCN(CC[C@H](CN(C)C(=O)C2CCCCC2)c2ccc(Cl)c(Cl)c2)CC1 [compound 3] | 8.2 | 8.8 | 0.221 µmol/kg | 0.07 µmol/kg | 0.397 µmol/kg | – | – | – | – | – | – | –
CN(C)C(=O)C1(N2CCCCC2)CCN(CC[C@H](CN(C)C(=O)c2ccc(O)cc2)c2ccc(Cl)c(Cl)c2)CC1 [compound 6, 1′-{(3S)-3-(3,4-dichlorophenyl)-4-[(4-hydroxybenzoyl)-(methyl)amino]butyl}-N,N-dimethyl-1,4′-bipiperidine-4′-carboxamide] | – | – | – | – | – | 2 nM | 0.631 nM | 0.06 µmol/kg | 0.096 µmol/kg | 0.04 µmol/kg | – | –
CN(C)C(=O)C1(N2CCCCC2)CCN(CC[C@H](CN(C)C(=O)c2ccccc2)c2ccc(Cl)c(Cl)c2)CC1 [compound 1] | – | – | – | – | – | 2.51 nM | 0.158 nM | 0.033 µmol/kg | < 0.003 µmol/kg | 0.044 µmol/kg | active orally on the NK2 | ED50 ([3]; read-out: ED50 AUC1-180 min oral, NK2 (bronchoconstriction)): 0.457 µmol/kg; ED50 ([3]; read-out: ED50 AUC1-180 min oral, NK2 (colonic motility)): 1.08 µmol/kg; ED50 ([3]; read-out: ED50 AUC1-180 min oral, NK2 (late hypotension)): 2.24 µmol/kg
CN(C)C(=O)C1(N2CCCCC2)CCN(CC[C@H](CN(C)C(=O)c2cc(F)ccc2F)c2ccc(Cl)c(Cl)c2)CC1 [compound 15] | 8.1 | 9.2 | 0.075 µmol/kg | 0.066 µmol/kg | 0.1 µmol/kg | – | – | – | – | – | – | –
CN(C)C(=O)C1(N2CCCCC2)CCN(CCC(CN(C)C(=O)c2cccnc2)c2ccc(Cl)c(Cl)c2)CC1 (centres unmarked) [compound 19] | – | – | – | – | – | 50.1 nM | 3.16 nM | 0.093 µmol/kg | 0.028 µmol/kg | 0.209 µmol/kg | – | –
CN(C)C(=O)C1(N2CCCCC2)CCN(CC[C@H](CN(C)C(=O)c2ccc(F)c(F)c2)c2ccc(Cl)c(Cl)c2)CC1 [compound 14] | 8.1 | 9.1 | 0.26 µmol/kg | 0.245 µmol/kg | 0.247 µmol/kg | – | – | – | – | – | – | –
CN(C)C(=O)C1(N2CCCCC2)CCN(CCC(CN(C)C(=O)c2ccc(Cl)nc2)c2ccc(Cl)c(Cl)c2)CC1 (centres unmarked) [compound 18] | – | – | – | – | – | 10 nM | 1.26 nM | 0.18 µmol/kg | 0.068 µmol/kg | 0.181 µmol/kg | – | –
CN(C)C(=O)C1(N2CCCCC2)CCN(CC[C@H](CN(C)C(=O)c2ccc(F)cc2)c2ccc(Cl)c(Cl)c2)CC1 [compound 4] | 8.2 | 9.6 | 0.058 µmol/kg | 0.053 µmol/kg | 0.04 µmol/kg | – | – | – | – | – | active orally on the NK2 | ED50 AUC1-180 min oral, NK2 (bronchoconstriction) [3]: <3.2 µmol/kg; ED50 AUC1-180 min oral, NK2 (colonic motility) [3]: <3.2 µmol/kg; ED50 AUC1-180 min oral, NK2 (late hypotension) [3]: 12 µmol/kg
CN(C)C(=O)C1(N2CCCCC2)CCN(CC[C@H](CN(C)C(=O)c2ccc(F)cc2F)c2ccc(Cl)c(Cl)c2)CC1 [compound 13] | 8.0 | 9.0 | – | – | – | – | – | – | – | – | – | –
CN(C)C(=O)C1(N2CCCCC2)CCN(CC[C@H](CN(C)C(=O)c2cc(C#N)c3ccccc3c2)c2ccc(Cl)c(Cl)c2)CC1 [compound 11] | 8.1 | 8.7 | 0.052 µmol/kg | 0.085 µmol/kg | 0.212 µmol/kg | – | – | – | – | – | active orally on the NK2 | ED50 AUC1-180 min oral, NK2 (bronchoconstriction) [3]: 2.213 µmol/kg; ED50 AUC1-180 min oral, NK2 (colonic motility) [3]: 11.228 µmol/kg; ED50 AUC1-180 min oral, NK2 (late hypotension) [3]: 2.509 µmol/kg
